Results on 10 compounds are retold here after patent publication US8119681B2, “2-[1-phenyl-5-hydroxy or methoxy-4alpha-methyl-hexahydrocyclopenta [ƒ]indazole-5-YL]ethyl phenyl derivatives as glucocorticoid receptor ligands” (Merck Sharp & Dohme Corp., priority 2006, dated 2012).

Structures are written as SMILES.

The target of this test is T1, human GR (Homo sapiens, UniProt P04150).
T1 sequence (P04150 1-777): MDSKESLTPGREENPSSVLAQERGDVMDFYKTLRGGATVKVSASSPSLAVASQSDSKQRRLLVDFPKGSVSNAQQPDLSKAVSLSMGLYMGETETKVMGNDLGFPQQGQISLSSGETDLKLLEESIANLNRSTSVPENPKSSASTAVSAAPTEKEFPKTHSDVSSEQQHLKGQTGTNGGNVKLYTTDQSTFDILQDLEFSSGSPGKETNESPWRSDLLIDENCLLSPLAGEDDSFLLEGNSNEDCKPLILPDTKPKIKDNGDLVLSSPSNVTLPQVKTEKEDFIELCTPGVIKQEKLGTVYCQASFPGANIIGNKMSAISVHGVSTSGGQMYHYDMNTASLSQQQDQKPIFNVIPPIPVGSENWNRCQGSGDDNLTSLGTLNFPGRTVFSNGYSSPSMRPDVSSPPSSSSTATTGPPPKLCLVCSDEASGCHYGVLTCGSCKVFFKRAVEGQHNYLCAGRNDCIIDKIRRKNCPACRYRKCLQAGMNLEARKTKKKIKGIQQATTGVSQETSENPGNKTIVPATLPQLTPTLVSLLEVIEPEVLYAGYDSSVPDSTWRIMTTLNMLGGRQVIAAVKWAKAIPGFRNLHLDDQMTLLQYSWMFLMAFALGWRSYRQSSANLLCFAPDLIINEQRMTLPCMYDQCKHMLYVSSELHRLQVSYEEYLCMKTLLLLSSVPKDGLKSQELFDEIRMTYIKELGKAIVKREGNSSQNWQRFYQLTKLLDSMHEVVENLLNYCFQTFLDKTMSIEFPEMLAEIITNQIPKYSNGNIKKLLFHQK
Nature of the test: Transrepression Assay (GITAR), TNFα-β-lactamase reporter gene in U937 cells. The test is classed as cell-based. The note with it: U-937; 100 nM dexamethasone = 100% activity; read-out: maximal activity in the transrepression assay. More on the design: U937 cells contain an endogenous glucocorticoid receptor (GR); endogenous in cells; host or cells: U937 cells stably transfected with the TNF-α promoter/β-lactamase reporter only. The text has this:
Transrepression Assay (GITAR)
This assay assesses the ability of test compounds to control transcription from the TNFα-β-lactamase reporter gene in U937 cells, a human myelomonocytic leukemia cell line that naturally expresses the human GR. The assay measures compound dependent-repression of the TNFa promoter linked to a reporter gene.
The human U937 cells that had been stably transfected with the TNF-α promoter driving β-lactamase are used for this assay. U937 cells contain an endogenous glucocorticoid receptor (GR). […] 50,000 cells/well are plated in 96 well black-walled plates the day of assay. Test compounds are added 10 μL/well, and cells are incubated at 37° C. for 30˜45 min. For assaying compounds, first dilute 1:10 in DMSO to make 1 mM, then further dilute 1:100 in medium to make 10× stock prior to adding to the cells. Add 50 ng/ml PMA (Sigma, cat# P8139) 10 μL/well to a final concentration 5 ng/ml, and 1 μg/ml LPS (Sigma, cat# L4130) 10 μL/well to a final concentration 100 ng/ml. Incubate cells at 370 C overnight for ˜18 hr. PMA is stored frozen as 100 μg/ml stock in DMSO. Dilute 1:10 in DMSO for a working stock of 10 μg/ml and store at −20 C. For assaying, dilute the 10 μg/ml working stock 1:200 in medium to make a 10× solution (50 ng/ml). Store frozen LPS at 1 mg/ml in PBS, dilute 1:1000 in medium to make 10× (1 μg/ml) for the assay. Add 6× loading buffer (CCF2-AM) 20 μL/well, and incubate at room temperature for 70˜90 min. […] The activity repressed by 100 nM dexamethasone alone is set as 100% activity.
Take `C[C@]12Cc3cnn(-c4ccc(F)cc4)c3C=C1CC[C@@]2(O)CCc1ccccc1C(=O)N1CC[C@H](F)C1` [Example 54, (4αS,5R)-1-(4-fluorophenyl)-5-[2-(2-{[(3S)-3-fluoropyrrolidin-1-yl]carbonyl}phenyl)ethyl]-4α-methyl-1,4,4α,5,6,7-hexahydrocyclopenta[f]indazol-5-ol]: the Emax was 5 to 100%. For `C[C@]12Cc3cnn(-c4ccc(F)cc4)c3C=C1CC[C@@]2(O)CCc1ccccc1CC(=O)NCC(F)(F)F` [Example 56, 2-(2-{2-[(4αS,5R)-1-(4-fluorophenyl)-5-hydroxy-4α-methyl-1,4,4α,5,6,7-hexahydrocyclopenta[f]indazol-5-yl]ethyl}phenyl)-N-(2,2,2-trifluoroethyl)acetamide] the value was 5 to 100%. Take `C[C@]12Cc3cnn(-c4ccc(F)cc4)c3C=C1CC[C@@]2(O)CCc1ccccc1C(=O)N1CC[C@@H](O)C1` [Example 58, (4αS,5R)-1-(4-fluorophenyl)-5-[2-(2-{[(3R)-3-hydroxypyrrolidin-1-yl]carbonyl}phenyl)ethyl]-4α-methyl-1,4,4α,5,6,7-hexahydrocyclopenta[f]indazol-5-ol]: the Emax was 5 to 100%. To `C[C@]12Cc3cnn(-c4ccc(F)cc4)c3C=C1CC[C@@]2(O)CCc1ccccc1C(N)=O` [Example 60, 2-{2-[(4αS,5R)-1-(4-fluorophenyl)-5-hydroxy-4α-methyl-1,4,4α,5,6,7-hexahydrocyclopenta[f]indazol-5-yl]ethyl}benzamide] belongs 5 to 100%; to `CC1(NC(=O)c2c(F)cccc2CC[C@]2(O)CCC3=Cc4c(cnn4-c4ccc(F)cc4)C[C@@]32C)CC1` [Example 63, 2-fluoro-6-{2-[(4αS,5R)-1-(4-fluorophenyl)-5-hydroxy-4α-methyl-1,4,4α,5,6,7-hexahydrocyclopenta[f]indazol-5-yl]ethyl}-N-(1-methylcyclopropyl)benzamide], 5 to 100%; to `C[C@]12Cc3cnn(-c4ccc(F)cc4)c3C=C1CC[C@@]2(O)CCc1ccccc1C(=O)NCC(F)(F)F` [Example 64, 2-{2-[(4αS,5R)-1-(4-fluorophenyl)-5-hydroxy-4α-methyl-1,4,4α,5,6,7-hexahydrocyclopenta[f]indazol-5-yl]ethyl}-N-(2,2,2-trifluoroethyl)benzamide], 5 to 100%. For `C[C@]12Cc3cnn(-c4ccc(F)cc4)c3C=C1CC[C@@]2(O)CCc1cccc(F)c1C(=O)N1CCC1` [Example 65, (4αS,5R)-5-{2-[2-(azetidin-1-ylcarbonyl)-3-fluorophenyl]ethyl}-1-(4-fluorophenyl)-4α-methyl-1,4,4α,5,6,7-hexahydrocyclopenta[f]indazol-5-ol] the value was 5 to 100%; for `C[C@]12Cc3cnn(-c4ccc(F)cc4)c3C=C1CC[C@@]2(O)CCc1ccccc1C(=O)N1CCCC(F)(F)C1` [Example 66, (4αS,5R)-5-(2-{2-[(3,3-difluoropiperidin-1-yl)carbonyl]phenyl}ethyl)-1-(4-fluorophenyl)-4α-methyl-1,4,4α,5,6,7-hexahydrocyclopenta[f]indazol-5-ol], 5 to 100%; for `CC(C)NC(=O)c1c(F)cccc1CC[C@]1(O)CCC2=Cc3c(cnn3-c3ccc(F)cc3)C[C@@]21C` [Example 67, 2-fluoro-6-{2-[(4αS,5R)-1-(4-fluorophenyl)-5-hydroxy-4α-methyl-1,4,4α,5,6,7-hexahydrocyclopenta[f]indazol-5-yl]ethyl}-N-isopropylbenzamide], 5 to 100%.

With `C[C@]12Cc3cnn(-c4ccc(F)cc4)c3C=C1CC[C@@]2(O)CCc1cccc(F)c1C(N)=O` [Example 68, 2-fluoro-6-{2-[(4αS,5R)-1-(4-fluorophenyl)-5-hydroxy-4α-methyl-1,4,4α,5,6,7-hexahydrocyclopenta[f]indazol-5-yl]ethyl}benzamide], the Emax was 5 to 100%.
